In patent US20100166826A1, “BIODEGRADABLE INTRAVAGINAL DEVICES FOR DELIVERY OF THERAPEUTICS” (University of Uath Research Foundation, priority 2007, published 2010):

Test: release of TMC120 from degradable polyurethane (FIG. 5)
Assay type: physicochemical
Conditions: period of one month; from degradable polyurethane made from terathane-co-(caprolactone), 4,4′-methylenebis-cyclohexane diisocyanate and 1,4-butanediol

release profile of TMC120: sustained release profile
SMILES: Cc1cc(C)c(Nc2ccnc(Nc3ccc(C#N)cc3)n2)c(C)c1 [TMC120, 4-[4-(mesitylamino)pyrimidin-2-ylamino)-benzonitrile]
